pIC50: −log10 of the molar value.
Tested on: NCI-H1876 tumor spheroid viability
Experiment: Anticancer human tumor NCI-H1876 cell line growth inhibition;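 further: spheroids exposed to compounds for seven days before the viability read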;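 on viability, T/C: percent of DMSO vehicle control viability so 100% = vehicle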
Conditions: spheroids with HUVEC and MSC; for pIC50: curve of first compound; for viability, T/C: stronger effect = lower value; active means viability on the fitted dose curve at most 10% of control; inactive means the rest
How it was run: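 Complex tumor spheroids combined malignant cells with endothelial cells and mesenchymal stem cells. DNA-damaging drugs and DNA repair inhibitors were tested alone and in combination, at half-log dilutions down from clinical Cmax (top 10 microM if Cmax unknown), 0.25% DMSO final.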

[1] = second compound 0.003 µM, first compound 0.0316 µM
[2] = second compound 0.003 µM, first compound 0.1 µM
[3] = second compound 0.003 µM, first compound 0.316 µM
[4] = second compound 0.003 µM, first compound 1 µM
[5] = second compound 0.003 µM, first compound 3.16 µM
[6] = second compound 0.003 µM, first compound 10 µM
[7] = second compound 0.00949 µM, first compound 0.0316 µM
[8] = second compound 0.00949 µM, first compound 0.1 µM
[9] = second compound 0.00949 µM, first compound 0.316 µM
[10] = second compound 0.00949 µM, first compound 1 µM
[11] = second compound 0.00949 µM, first compound 3.16 µM
[12] = second compound 0.00949 µM, first compound 10 µM
[13] = second compound 0.03 µM, first compound 0.0316 µM
[14] = second compound 0.03 µM, first compound 0.1 µM
[15] = second compound 0.03 µM, first compound 0.316 µM
[16] = second compound 0.03 µM, first compound 1 µM
[17] = second compound 0.03 µM, first compound 3.16 µM
[18] = second compound 0.03 µM, first compound 10 µM
[19] = second compound 0.0949 µM, first compound 0.0316 µM
[20] = second compound 0.0949 µM, first compound 0.1 µM
[21] = second compound 0.0949 µM, first compound 0.316 µM
[22] = second compound 0.0949 µM, first compound 1 µM
[23] = second compound 0.0949 µM, first compound 3.16 µM
[24] = second compound 0.0949 µM, first compound 10 µM
[25] = second compound 0.3 µM, first compound 0.0316 µM
[26] = second compound 0.3 µM, first compound 0.1 µM
[27] = second compound 0.3 µM, first compound 0.316 µM
[28] = second compound 0.3 µM, first compound 1 µM
[29] = second compound 0.3 µM, first compound 3.16 µM
[30] = second compound 0.3 µM, first compound 10 µM

CC(C)n1c(=O)n(C)c2cnc3cc(F)c(-c4ccc(OCCCN5CCCCC5)nc4)cc3c21 + CC[C@@]1(O)C(=O)OCc2c1cc1n(c2=O)Cc2cc3c(CN(C)C)c(O)ccc3nc2-1
active: viability, T/C [7] 5.02% | viability, T/C [8] 4.95% | viability, T/C [9] 5.93% | viability, T/C [10] 7.51% | viability, T/C [11] 10.2% | viability, T/C [12] 11.6% | viability, T/C [13] 2.64% | viability, T/C [14] 2.9% | viability, T/C [15] 2.81% | viability, T/C [16] 3.34% | viability, T/C [17] 3.91% | viability, T/C [18] 4.32% | viability, T/C [19] 2.03% | viability, T/C [20] 2.07% | viability, T/C [21] 2.33% | viability, T/C [22] 2.86% | viability, T/C [23] 2.99% | viability, T/C [24] 3.42% | viability, T/C [25] 1.97% | viability, T/C [26] 2.19% | viability, T/C [27] 1.74% | viability, T/C [28] 2.16% | viability, T/C [29] 2.86% | viability, T/C [30] 2.71%
> 7.50: pIC50 (second compound 0.003 µM) | pIC50 (second compound 0.00949 µM) | pIC50 (second compound 0.03 µM) | pIC50 (second compound 0.0949 µM) | pIC50 (second compound 0.3 µM)
inactive: viability, T/C [1] 25.1% | viability, T/C [2] 25.5% | viability, T/C [3] 34.6% | viability, T/C [4] 45.5% | viability, T/C [5] 44.1% | viability, T/C [6] 28.1%

COc1ccc([C@@H](O)c2cc(-c3ncnc4cc(N5CCOCC5)ccc34)c(F)cc2Cl)nn1 + CC[C@@]1(O)C(=O)OCc2c1cc1n(c2=O)Cc2cc3c(CN(C)C)c(O)ccc3nc2-1
5.78: pIC50 (second compound 0.003 µM)
> 7.50: pIC50 (second compound 0.00949 µM) | pIC50 (second compound 0.03 µM) | pIC50 (second compound 0.0949 µM) | pIC50 (second compound 0.3 µM)
inactive: viability, T/C [1] 88.7% | viability, T/C [2] 83.7% | viability, T/C [3] 85.3% | viability, T/C [4] 67.1% | viability, T/C [5] 27.6% | viability, T/C [6] 10.9% | viability, T/C [7] 15.9% | viability, T/C [8] 15.2% | viability, T/C [9] 17.8% | viability, T/C [10] 12.2%
active: viability, T/C [11] 8.75% | viability, T/C [12] 5.67% | viability, T/C [13] 3.61% | viability, T/C [14] 6.14% | viability, T/C [15] 3.33% | viability, T/C [16] 3.01% | viability, T/C [17] 2.56% | viability, T/C [18] 2.82% | viability, T/C [19] 2.02% | viability, T/C [20] 2.62% | viability, T/C [21] 2.15% | viability, T/C [22] 2.18% | viability, T/C [23] 1.69% | viability, T/C [24] 2.92% | viability, T/C [25] 1.88% | viability, T/C [26] 1.98% | viability, T/C [27] 1.62% | viability, T/C [28] 1.27% | viability, T/C [29] 1.46% | viability, T/C [30] 1.93%

O=C(c1cc(Cc2n[nH]c(=O)c3ccccc23)ccc1F)N1CCN(C(=O)C2CC2)CC1 + COc1cc2c(cc1O)CCNC21CSC2c3c(OC(C)=O)c(C)c4c(c3C(COC1=O)N1C(O)C3Cc5cc(C)c(OC)c(O)c5C(C21)N3C)OCO4
inactive: viability, T/C (second compound 30 pM, first compound 0.0949 µM) 99.7% | viability, T/C (second compound 30 pM, first compound 0.3 µM) 98.4% | viability, T/C (second compound 30 pM, first compound 0.949 µM) 92.7% | viability, T/C (second compound 30 pM, first compound 3 µM) 53.4% | viability, T/C (second compound 30 pM, first compound 9.49 µM) 14.2% | viability, T/C (second compound 94.9 pM, first compound 0.0949 µM) 85.8% | viability, T/C (second compound 94.9 pM, first compound 0.3 µM) 82.7% | viability, T/C (second compound 94.9 pM, first compound 0.949 µM) 70.5% | viability, T/C (second compound 94.9 pM, first compound 3 µM) 37.2% | viability, T/C (second compound 94.9 pM, first compound 9.49 µM) 7.9% | viability, T/C (second compound 0.0003 µM, first compound 0.0949 µM) 15.1% | viability, T/C (second compound 0.0003 µM, first compound 0.3 µM) 16.9% | viability, T/C (second compound 0.0003 µM, first compound 0.949 µM) 12.9%
> 7.02: pIC50 (second compound 0.0003 µM) | pIC50 (second compound 0.000949 µM) | pIC50 (second compound 0.003 µM)
5.72: pIC50 (second compound 94.9 pM)
5.48: pIC50 (second compound 30 pM)
active: viability, T/C (second compound 30 pM, first compound 30 µM) 9.96% | viability, T/C (second compound 94.9 pM, first compound 30 µM) 7.02% | viability, T/C (second compound 0.0003 µM, first compound 3 µM) 7.99% | viability, T/C (second compound 0.0003 µM, first compound 9.49 µM) 5.74% | viability, T/C (second compound 0.0003 µM, first compound 30 µM) 4.63% | viability, T/C (second compound 0.000949 µM, first compound 0.0949 µM) 2.17% | viability, T/C (second compound 0.000949 µM, first compound 0.3 µM) 2.25% | viability, T/C (second compound 0.000949 µM, first compound 0.949 µM) 2.87% | viability, T/C (second compound 0.000949 µM, first compound 3 µM) 2.49% | viability, T/C (second compound 0.000949 µM, first compound 9.49 µM) 2.27% | viability, T/C (second compound 0.000949 µM, first compound 30 µM) 2.54% | viability, T/C (second compound 0.003 µM, first compound 0.0949 µM) 6.83% | viability, T/C (second compound 0.003 µM, first compound 0.3 µM) 0.52% | viability, T/C (second compound 0.003 µM, first compound 0.949 µM) 0.47% | viability, T/C (second compound 0.003 µM, first compound 3 µM) 0.53% | viability, T/C (second compound 0.003 µM, first compound 9.49 µM) 0.55% | viability, T/C (second compound 0.003 µM, first compound 30 µM) 0.95%

From PubChem BioAssay AID1845207 (Molecular Pharmacology Branch, DTP, NCI, 2023)
